How the values were obtained:
human neutrophils [1] = assay: Superoxide anion (O2˙-) generation in fMLF/CB-activated human neutrophils (SOD-inhibitable ferricytochrome c reduction); type: cell-based; conditions: for IC50 / inhibition at 10 µM: Neutrophil
Method: (§1) Human neutrophils were obtained in lipopolysaccharide-free conditions by means of dextran sedimentation and Ficoll centrifugation.
O2˙^- production was determined based on the SOD-inhibitable reduction of ferricytochrome c. Briefly, neutrophils (6 × 10^5/mL) were treated with a candidate compound at 37 °C at various concentrations (0.001 to 10 µM) for 5 min after being supplementing with 0.5 mg/mL ferricytochrome c and 1 mM Ca^2+. Cells were then activated with fMLF (0.1 µM) for 10 min in the pre-process of cytochalasin B (CB, 1 µg/mL) for 3 min. Changes in absorbance with the reduction of ferricytochrome c at 550 nm were continuously monitored in a double-beam, six-cell positioner spectrophotometer with constant stirring (Hitachi U-3010, Tokyo, Japan). Calculations were based on the differences in the reactions with and without SOD (100 U ml^-1) divided by the extinction coefficient for the reduction of ferricytochrome c (ε = 21.1 mM^-1/10 mm).

human neutrophils [2] = assay: Elastase release in fMLF/CB-activated human neutrophils (Methoxysuccinyl-Ala-Ala-Pro-Val-p-nitroanilide substrate); type: cell-based; conditions: Neutrophil; for inhibition at 10 µM: at 10 µM concentration
Method: as §1
Methoxysuccinyl-Ala-Ala-Pro-Val-p-nitroanilide was employed as the elastase substrate for the determination of elastase release. Briefly, after supplementation with Methoxysuccinyl-Ala-Ala-Pro-Val-p-nitroanilide (100 µM), neutrophils (6 × 10^5/mL) were equilibrated at 37 °C for 2 min and incubated with a candidate compound at various concentrations for 5 min. Cells were then activated with fMLF (0.1 µM) for 10 min in the pre-process of CB (0.5 µg/mL) for 3 min, and changes in absorbance at 405 nm were continuously monitored to evaluate elastase release. Results are expressed as the percentage of elastase release in the drug-free control group, DMSO.

LPS-induced ALI = assay: LPS-induced acute lung injury (ALI) in mice (lung MPO activity, H&E, immunohistochemistry); type: in vivo, BALB/c mice; conditions: 20 mg/Kg intravenous 1 hr before intratracheal LPS (2 mg/Kg), 5 hrs
Method: (§2) Male BALB/c mice aged 7-8 weeks were purchased from BioLASCO (Taipei, Taiwan) and maintained in a room with 12 hr light/dark cycles. Standard laboratory chow and water were available ad libitum. All animal experimental procedures were performed in accordance with guidelines and approved by the Institutional Animal Care and Use Committee of Chang Gung University.
Mice were pre-treated with a candidate compound (e.g., HKI-4971), which was dissolved in 50 µl saline solution containing 10% DMSO and 20% Kolliphor EL (Sigma-Aldrich, USA), by intravenous injection. […]
Lung tissues were homogenized in PBS (50 Mm, pH 6.0) containing 0.5% (w/v) hexadecyltrimethylammonium bromide (HETAB) (Sigma-Aldrich, USA) by using the MagNA Lyser Instrument (Roche, Germany), and was further centrifuged at 12,000 ×g for 20 min at 4°C to remove the insoluble material. The peroxidase activity was measured as the oxidation of o-Dianisidine dihydrochloride (Sigma-Aldrich, USA). […] The absorption was determined spectrophotometrically at 405 nm. […]
In this example, the Gram-negative bacterial endotoxin LPS induced ALI in mice was employed to mimic ARDS in human, and the effect of HKI-4971 was evaluated. […]

[3] = Liver and kidney function (blood ALT, AST, BUN, creatinine) in imiquimod-induced mice; type: in vivo, BALB/c mice; conditions: HKI-4971 20 mg/kg intraperitoneal, alone or in combination with IMQ; n=3
Method: (§3) Male BALB/c mice aged 7-8 weeks were used for the development of the imiquimod-induced psoriatic-like plaque model. The dorsal skin of the mice were shaved and received a daily topical dose of 62.5 mg of 5% imiquimod (IMQ) cream (Aldara, MEDA Pharma, Sweden) with or without a test compound (e.g., HKI-4971) treatment by intraperitoneal injection for 7 consecutive days.
In this example, the effect of HKI-4971 (or compound 13) on the development of psoriasis was investigated using the well-established psoriasis animal model, in which imiquimod (IMQ) was used to induce psoriasis-like skin inflammation. Briefly, BALB/c mice are pre-treated by intraperitoneal injection of HKI-4971 (20 mg/kg) for 30 min before 5% IMQ cream was topically administered onto the back of the mice every day for 7 days. Then, skin samples taken from these animals were subjected to microscopy examination and immunohistochemistry staining, while blood samples were subjected to analysis for liver and kidney functions. Results are depicted in FIGs 1 to 3.
Blood samples taken from IMQ- or IMQ+HKI-4971 treated animals were analyzed for the levels of alanine aminotransferase and aspartate transaminase, which were used as indicators for assessing liver function; and the levels of blood […] nitrogen (BUN) and creatinine (CRE), which were used as indicators for assessing the kidney function. […]

[4] = test system: imiquimod-induced psoriasis; assay: Imiquimod-induced psoriasis-like skin inflammation in mice (phenotype, H&E, immunohistochemistry); type: in vivo, BALB/c mice; conditions: 20 mg/kg intraperitoneal, 30 min before 5% IMQ cream, every day for 7 days
Method: as §2, §3
Tissue samples were fixed in 10% neutral buffered formalin and embedding in paraffin blocks. Sections of the samples were prepared at 5 µm thickness and stained with hematoxylin and eosin (H&E). For immunohistochemistry staining, the sections were incubated with primary antibodies against Ly6g, MPO, and ki67 then the secondary antibody was applied for the detection of the primary antibody according to the manufacturer's instructions of the SuperPicture Polymer Detection Kit (Thermo Fisher, USA). Finally, the section slides were subsequently stained with DAB chromogen and counterstained with hematoxylin. […]

[5] = at 10 µM concentration, FMLP/CB-induced human neutrophils, mean ± S.E.M. (n = 3-5)
[6] = FMLP/CB-induced human neutrophils, mean ± S.E.M. (n = 3-5), read-out: Elastase Release IC50
[7] = FMLP/CB-induced human neutrophils, mean ± S.E.M. (n = 3-5)
[8] = FMLP/CB-induced human neutrophils, mean ± S.E.M. (n = 3-5), read-out: Superoxide Anion IC50

Row | Structure (SMILES) | IC50 (human neutrophils [2]; [6]) [µM] | IC50 (human neutrophils [1]; [8]) [µM] | IC50 (human neutrophils [1]; Homo sapiens, neutrophils in response to fMLF, Table 2, read-out: IC50 for suppressing the superoxide anion generation) [µM] | IC50 (human neutrophils [2]; Homo sapiens, neutrophils in response to fMLF, Table 2, read-out: IC50 for suppressing elastase release) [µM] | Superoxide Anion Inhibition % (human neutrophils [1]; [5]) | inhibition at 10 µM (human neutrophils [2]; [7]) [%] | inhibition at 10 µM (human neutrophils [1]; [5]) [%] | LPS-induced neutrophil infiltration and lung injury (H&E and neutrophil markers in lung sections) (LPS-induced ALI) | MPO activity in lung tissues (LPS-induced ALI; n=3) | functions of liver or kidney (alanine aminotransferase, aspartate transaminase, BUN, CRE in blood) [3] | markers for cell proliferation (ki-67) and for neutrophils (Ly6g and MPO), immunostaining of skin samples [4] | severity or progression of IMQ-induced psoriasis [4]
1 | Cn1nc(N)c2c(Nc3ccc(Cl)cc3)nc3ccccc3c21 [Compound 17, 4-(4-Chloroanilino)-1-methyl-1H-pyrazolo[4,3-c]quinolin-3-amine] | 5.28 ± 0.66 | 3.49 ± 1.25 |  |  |  | 75.8 ± 6.64 | 82.8 ± 5.36 |  |  |  |  | 
2 | Cn1nc(N)c2c(Nc3ccc(O)cc3)nc3ccccc3c21 [Compound 13, 4-(4-Hydroxyanilino)-1-methyl-1H-pyrazolo[4,3-c]quinolin-3-amine] | 0.0321 ± 0.0174 | 0.00369 ± 0.00174 | ~0.0037 | ~0.032 |  | 105 ± 2.53 | 88.1 ± 1.19 | significantly alleviated | suppressed | did not result in significant damage | reduced | reduce the severity or progression

The next lines start with results.

Row | IC50 (human neutrophils [2]; [6]) [µM] | IC50 (human neutrophils [1]; [8]) [µM] | IC50 (human neutrophils [1]; Homo sapiens, neutrophils in response to fMLF, Table 2, read-out: IC50 for suppressing the superoxide anion generation) [µM] | IC50 (human neutrophils [2]; Homo sapiens, neutrophils in response to fMLF, Table 2, read-out: IC50 for suppressing elastase release) [µM] | Structure (SMILES) | Superoxide Anion Inhibition % (human neutrophils [1]; [5]) | inhibition at 10 µM (human neutrophils [2]; [7]) [%] | inhibition at 10 µM (human neutrophils [1]; [5]) [%] | LPS-induced neutrophil infiltration and lung injury (H&E and neutrophil markers in lung sections) (LPS-induced ALI) | MPO activity in lung tissues (LPS-induced ALI; n=3) | functions of liver or kidney (alanine aminotransferase, aspartate transaminase, BUN, CRE in blood) [3] | markers for cell proliferation (ki-67) and for neutrophils (Ly6g and MPO), immunostaining of skin samples [4] | severity or progression of IMQ-induced psoriasis [4]
3 | 7.24 ± 0.72 |  |  |  | Cc1ccc(Nc2nc3ccccc3c3onc(N)c23)cc1 [Compound 33, 4-(4-Methylanilino)isoxazolo[4,5-c]quinolin-3-amine] | enhanced | 68 ± 5.23 |  |  |  |  |  | 
4 | > 10 | > 10 |  |  | Nc1noc2c1c(Nc1ccc(C(=O)O)cc1)nc1ccccc12 [Compound 31, 4-[(3-aminoisoxazolo[4,5-c]quinolin-4-yl)amino]benzoic acid] |  | -1.4 ± 3.53 | 7.44 ± 4.23 |  |  |  |  | 
5 | > 10 | 8.59 ± 0.29 |  |  | COc1ccc(Nc2nc3ccccc3c3onc(N)c23)cc1 [Compound 23, 4-(4-Methoxyanilino)isoxazolo[4,5-c]quinolin-3-amine] |  | -9.67 ± 3.44 | 59.1 ± 2.03 |  |  |  |  | 
